Molecular target: T1, Cbp1 (c-di-GMP binding protein 1; PilZ domain containing chemoreceptor) (Azorhizobium caulinodans, UniProt A8II15)
T1 construct: gene AZC_3349; Cbp1 ORF with C-terminal 6×His tag, expressed in E. coli Top10
Assay: ITC ([…] protein titrated with […] c-di-GMP); also protein thermal shift assay

T1 sequence (A8II15 1-581): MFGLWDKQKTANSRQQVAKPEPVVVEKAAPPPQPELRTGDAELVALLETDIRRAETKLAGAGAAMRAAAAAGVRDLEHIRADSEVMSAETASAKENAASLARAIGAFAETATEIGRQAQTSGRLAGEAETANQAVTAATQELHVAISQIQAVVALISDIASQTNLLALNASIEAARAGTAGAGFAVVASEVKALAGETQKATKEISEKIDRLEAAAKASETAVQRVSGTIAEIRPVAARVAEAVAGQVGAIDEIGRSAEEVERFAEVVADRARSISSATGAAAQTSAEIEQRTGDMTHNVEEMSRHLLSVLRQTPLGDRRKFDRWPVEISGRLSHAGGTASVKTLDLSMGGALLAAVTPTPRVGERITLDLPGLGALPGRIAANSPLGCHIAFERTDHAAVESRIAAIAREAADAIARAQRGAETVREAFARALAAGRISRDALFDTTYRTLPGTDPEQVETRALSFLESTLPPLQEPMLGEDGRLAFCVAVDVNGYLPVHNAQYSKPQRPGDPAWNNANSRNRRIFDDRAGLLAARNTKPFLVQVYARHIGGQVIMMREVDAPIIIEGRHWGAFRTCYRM

Kd: 14.9 ± 1.6 µM
SMILES: Nc1nc2c(ncn2[C@@H]2O[C@@H]3CO[P@](=O)(O)O[C@H]4[C@@H](O)[C@H](n5cnc6c(=O)[nH]c(N)nc65)O[C@@H]4CO[P@](=O)(O)O[C@H]3[C@H]2O)c(=O)[nH]1 [c-di-GMP]

From publication PMC6454048, “Identification of Cbp1, a c-di-GMP Binding Chemoreceptor in Azorhizobium caulinodans ORS571 Involved in Chemotaxis and Nodulation of the Host Plant” (Frontiers in Microbiology, 2019)
